Test results reported in BindingDB's records for PubMed 36324498 (Yangtze University, 2022).

Biological target: Tyrosine-protein kinase Tec (Homo sapiens) (UniProt P42680)
Experiment: Inhibition of TEC (unknown origin)

Sequence of Tyrosine-protein kinase Tec (Homo sapiens) (P42680 whole entry, looked up): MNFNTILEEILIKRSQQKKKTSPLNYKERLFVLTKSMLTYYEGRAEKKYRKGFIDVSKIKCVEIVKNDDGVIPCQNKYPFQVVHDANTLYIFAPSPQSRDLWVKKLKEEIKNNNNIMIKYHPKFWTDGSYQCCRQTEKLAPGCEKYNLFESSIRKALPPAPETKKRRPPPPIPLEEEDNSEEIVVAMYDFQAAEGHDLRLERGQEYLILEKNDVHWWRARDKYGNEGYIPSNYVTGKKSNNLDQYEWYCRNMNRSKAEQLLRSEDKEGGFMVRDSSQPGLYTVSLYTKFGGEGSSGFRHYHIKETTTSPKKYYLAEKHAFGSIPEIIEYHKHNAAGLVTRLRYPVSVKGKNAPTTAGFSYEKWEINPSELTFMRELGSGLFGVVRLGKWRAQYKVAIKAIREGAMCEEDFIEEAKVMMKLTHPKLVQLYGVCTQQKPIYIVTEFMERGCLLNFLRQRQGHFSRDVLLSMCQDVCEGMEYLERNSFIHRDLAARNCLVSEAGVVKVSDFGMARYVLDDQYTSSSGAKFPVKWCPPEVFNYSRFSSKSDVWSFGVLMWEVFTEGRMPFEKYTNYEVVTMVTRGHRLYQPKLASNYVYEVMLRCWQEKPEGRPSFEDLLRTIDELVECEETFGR

## N#CN1CCC[C@@H](n2nc(-c3ccc(Oc4ccc(F)cc4F)cc3)c(C(N)=O)c2N)C1
  IC50: 1.2 nM
